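Protocol summary: plate cells (96-well), add compound at 5 concentrations, incubate 48 h, interpolate endpoints linearly. Abbreviation: GI50, concentration required for 50% inhibition of growth.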 The source made the active and inactive calls. No stated cut-off is given here; in the data, active = GI50 up to about 1.1 µM and inactive = higher.
What was measured:
Assay in all cases: NCI-60 cell line screen, 48 h
[1] = system: SF-295
[2] = system: OVCAR-4
[3] = system: SW-620
[4] = system: HOP-62
[5] = system: EKVX
[6] = system: UACC-257
[7] = system: UO-31
[8] = system: Malme-3M
[9] = system: KM12
[10] = system: SK-MEL-2
[11] = system: OVCAR-8
[12] = system: UACC-62
[13] = system: HT-29
[14] = system: RXF 393
[15] = system: HCC 2998
[16] = system: SK-OV-3
[17] = system: A498
[18] = system: PC-3
[19] = system: MDA-MB-435
[20] = system: NCI/ADR-RES

| Compound | GI50 [1] | GI50 [2] | GI50 [3] | GI50 [4] | GI50 [5] | GI50 [6] | GI50 [7] | GI50 [8] | GI50 [9] | GI50 [10] | GI50 [11] | GI50 [12] | GI50 [13] | GI50 [14] | GI50 [15] | GI50 [16] | GI50 [17] | GI50 [18] | GI50 [19] | GI50 [20] |
| --- | --- | --- | --- | --- | --- | --- | --- | --- | --- | --- | --- | --- | --- | --- | --- | --- | --- | --- | --- | --- |
| Cc1nc2cc3nc4ccccc4c(O)c3cc2s1 | > 100 µM (inactive) | > 100 µM (inactive) | > 100 µM (inactive) | > 100 µM (inactive) | > 100 µM (inactive) | > 100 µM (inactive) | > 100 µM (inactive) | > 100 µM (inactive) | > 100 µM (inactive) | > 100 µM (inactive) | > 100 µM (inactive) | > 100 µM (inactive) | > 100 µM (inactive) | > 100 µM (inactive) | > 100 µM (inactive) | > 100 µM (inactive) | > 100 µM (inactive) | – | – | – |
| CCOC(=O)C1(c2ccccc2)CCCNCC1 (stereo unspecified) | > 100 µM (inactive) | > 100 µM (inactive) | > 100 µM (inactive) | 32.4 µM (inactive) | > 100 µM (inactive) | 68.1 µM (inactive) | > 100 µM (inactive) | > 100 µM (inactive) | > 100 µM (inactive) | > 100 µM (inactive) | 39.4 µM (inactive) | > 100 µM (inactive) | 77.8 µM (inactive) | > 100 µM (inactive) | > 100 µM (inactive) | > 100 µM (inactive) | 45.8 µM (inactive) | – | – | – |
| CC1(C)OC2[C@@H](CO[C@@]3([C@@H](O)CCO)OC(C)(C)O[C@@H]23)O1 (stereo partly specified) | > 100 µM (inactive) | > 100 µM (inactive) | > 100 µM (inactive) | > 100 µM (inactive) | > 100 µM (inactive) | > 100 µM (inactive) | > 100 µM (inactive) | – | > 100 µM (inactive) | > 100 µM (inactive) | > 100 µM (inactive) | > 100 µM (inactive) | > 100 µM (inactive) | > 100 µM (inactive) | > 100 µM (inactive) | – | – | > 100 µM (inactive) | > 100 µM (inactive) | > 100 µM (inactive) |
| CCOC(=O)C(=O)Nc1c(C(C)C)cccc1C(C)C | > 100 µM (inactive) | > 100 µM (inactive) | > 100 µM (inactive) | > 100 µM (inactive) | > 100 µM (inactive) | > 100 µM (inactive) | > 100 µM (inactive) | > 100 µM (inactive) | > 100 µM (inactive) | > 100 µM (inactive) | > 100 µM (inactive) | > 100 µM (inactive) | > 100 µM (inactive) | > 100 µM (inactive) | > 100 µM (inactive) | > 100 µM (inactive) | > 100 µM (inactive) | – | – | – |
| N#CC(C(=O)C(=O)NCCCNC(=O)C(=O)C(C#N)c1ccccc1)c1ccccc1 (stereo unspecified) | > 100 µM (inactive) | > 100 µM (inactive) | > 100 µM (inactive) | > 100 µM (inactive) | > 100 µM (inactive) | > 100 µM (inactive) | > 100 µM (inactive) | > 100 µM (inactive) | > 100 µM (inactive) | > 100 µM (inactive) | > 100 µM (inactive) | > 100 µM (inactive) | > 100 µM (inactive) | > 100 µM (inactive) | > 100 µM (inactive) | > 100 µM (inactive) | > 100 µM (inactive) | – | – | – |
| O=[N+]([O-])c1cc(I)cc(/C=N/NS(=O)(=O)c2ccc(F)cc2)c1O | 33.2 µM (inactive) | 38.5 µM (inactive) | 32.4 µM (inactive) | 26.2 µM (inactive) | 30.7 µM (inactive) | 25.2 µM (inactive) | 26.2 µM (inactive) | 21.2 µM (inactive) | 25.5 µM (inactive) | 18 µM (inactive) | 23.6 µM (inactive) | 20.3 µM (inactive) | 18.7 µM (inactive) | 27 µM (inactive) | 33 µM (inactive) | 27.4 µM (inactive) | 36.1 µM (inactive) | – | – | – |
| C/C=C/[C@@]1(OC(=O)c2ccccc2)C[C@@H]2CCCC[C@@H]21 | 18.6 µM (inactive) | 17 µM (inactive) | 23 µM (inactive) | 15.5 µM (inactive) | 16.7 µM (inactive) | 18.3 µM (inactive) | 11 µM (inactive) | 17.5 µM (inactive) | 17.4 µM (inactive) | 13.2 µM (inactive) | 18.5 µM (inactive) | 16.7 µM (inactive) | 16.3 µM (inactive) | – | 21.1 µM (inactive) | 18.5 µM (inactive) | – | 20 µM (inactive) | – | 20.5 µM (inactive) |
| Cn1c2ccccc2c(=O)c2cccc(C(=O)NCC(=O)O)c21 | > 100 µM (inactive) | > 100 µM (inactive) | > 100 µM (inactive) | > 100 µM (inactive) | 36.8 µM (inactive) | > 100 µM (inactive) | > 100 µM (inactive) | > 100 µM (inactive) | > 100 µM (inactive) | > 100 µM (inactive) | > 100 µM (inactive) | > 100 µM (inactive) | > 100 µM (inactive) | – | > 100 µM (inactive) | > 100 µM (inactive) | – | > 100 µM (inactive) | > 100 µM (inactive) | 60.3 µM (inactive) |
| O=C(NS(=O)(=O)c1ccccc1)C(Cc1ccccc1)C(Cc1ccccc1)C(=O)NS(=O)(=O)c1ccccc1 (stereo unspecified) | > 100 µM (inactive) | > 100 µM (inactive) | > 100 µM (inactive) | > 100 µM (inactive) | > 100 µM (inactive) | > 100 µM (inactive) | > 100 µM (inactive) | > 100 µM (inactive) | > 100 µM (inactive) | > 100 µM (inactive) | > 100 µM (inactive) | > 100 µM (inactive) | > 100 µM (inactive) | > 100 µM (inactive) | > 100 µM (inactive) | > 100 µM (inactive) | > 100 µM (inactive) | – | – | – |
| Cc1ccc(S(=O)(=O)N/N=C2\C3CC4CC(C3)C2C4)cc1 (stereo unspecified) | > 100 µM (inactive) | > 100 µM (inactive) | > 100 µM (inactive) | > 100 µM (inactive) | – | > 100 µM (inactive) | > 100 µM (inactive) | > 100 µM (inactive) | > 100 µM (inactive) | > 100 µM (inactive) | > 100 µM (inactive) | > 100 µM (inactive) | > 100 µM (inactive) | > 100 µM (inactive) | > 100 µM (inactive) | > 100 µM (inactive) | – | > 100 µM (inactive) | > 100 µM (inactive) | > 100 µM (inactive) |
| [O-][S+]1c2ccccc2N=C(c2ccc3ccccc3c2)CC1c1ccccc1F (stereo unspecified) | > 100 µM (inactive) | > 100 µM (inactive) | > 100 µM (inactive) | > 100 µM (inactive) | > 100 µM (inactive) | > 100 µM (inactive) | > 100 µM (inactive) | > 100 µM (inactive) | > 100 µM (inactive) | > 100 µM (inactive) | > 100 µM (inactive) | > 100 µM (inactive) | > 100 µM (inactive) | > 100 µM (inactive) | > 100 µM (inactive) | > 100 µM (inactive) | 22.3 µM (inactive) | – | – | – |
| CC(=O)OCC1OC(n2c(C)c(/N=N/c3ccc(C)cc3)c(C)c(C#N)c2=S)C(OC(C)=O)C(OC(C)=O)C1OC(C)=O (stereo unspecified) | 90.6 µM (inactive) | 41.4 µM (inactive) | > 100 µM (inactive) | > 100 µM (inactive) | – | > 100 µM (inactive) | > 100 µM (inactive) | 79.3 µM (inactive) | > 100 µM (inactive) | – | – | 50.2 µM (inactive) | > 100 µM (inactive) | > 100 µM (inactive) | > 100 µM (inactive) | > 100 µM (inactive) | – | > 100 µM (inactive) | > 100 µM (inactive) | > 100 µM (inactive) |
| NS(=O)(=O)c1nnc(NSc2ccc([N+](=O)[O-])cc2)s1 | > 100 µM (inactive) | 48.9 µM (inactive) | > 100 µM (inactive) | > 100 µM (inactive) | > 100 µM (inactive) | > 100 µM (inactive) | > 100 µM (inactive) | > 100 µM (inactive) | > 10 µM (inactive) | > 100 µM (inactive) | > 100 µM (inactive) | > 100 µM (inactive) | – | > 100 µM (inactive) | > 100 µM (inactive) | > 100 µM (inactive) | > 100 µM (inactive) | – | > 100 µM (inactive) | > 100 µM (inactive) |
| COC1C2C=CC(C2)[C@H]1[N+](=O)[O-] (stereo partly specified) | > 100 µM (inactive) | > 100 µM (inactive) | 95.7 µM (inactive) | > 100 µM (inactive) | > 100 µM (inactive) | > 100 µM (inactive) | > 100 µM (inactive) | > 100 µM (inactive) | > 100 µM (inactive) | > 100 µM (inactive) | 56.8 µM (inactive) | > 100 µM (inactive) | > 100 µM (inactive) | > 100 µM (inactive) | > 100 µM (inactive) | > 100 µM (inactive) | > 100 µM (inactive) | – | – | – |
| O=C(Cc1nc2ccccc2c(=O)n1-c1ccccc1Cl)c1ccncc1 | > 100 µM (inactive) | 68.2 µM (inactive) | > 100 µM (inactive) | > 100 µM (inactive) | > 100 µM (inactive) | > 100 µM (inactive) | > 100 µM (inactive) | > 100 µM (inactive) | > 100 µM (inactive) | > 100 µM (inactive) | > 100 µM (inactive) | > 100 µM (inactive) | > 100 µM (inactive) | > 100 µM (inactive) | > 100 µM (inactive) | > 100 µM (inactive) | > 100 µM (inactive) | – | – | – |
| Nc1nc(N)c2cc(Sc3cccc(C(F)(F)F)c3)ccc2n1 [WR-159412] | 0.656 µM (active) | 6.78 µM (inactive) | – | 2.12 µM (inactive) | 3.56 µM (inactive) | – | 1.2 µM (inactive) | 1.02 µM (active) | 2.59 µM (inactive) | 2.23 µM (inactive) | – | 0.755 µM (active) | 3.62 µM (inactive) | – | 1.39 µM (inactive) | 9.08 µM (inactive) | – | – | 0.662 µM (active) | 0.955 µM (active) |

Reference: ChEMBL document CHEMBL1201862, “PubChem BioAssay data set” (2004)
